From BindingDB's records for doi:10.7270/Q2N014XN (Srmlsc, 2007)

target: T1, Diphosphomevalonate decarboxylase (Streptococcus pneumoniae serotype 2 (strain D39 / NCTC 7466), UniProt A0A0H2ZN59); test: diphosphomevalonate decarboxylase inhibition dose curves – biochemical, PK/LDH-coupled NADH fluorescence, hexokinase coupling counter-screen, dose response (AID 550); conditions: not given
T1 sequence (A0A0H2ZN59 whole entry): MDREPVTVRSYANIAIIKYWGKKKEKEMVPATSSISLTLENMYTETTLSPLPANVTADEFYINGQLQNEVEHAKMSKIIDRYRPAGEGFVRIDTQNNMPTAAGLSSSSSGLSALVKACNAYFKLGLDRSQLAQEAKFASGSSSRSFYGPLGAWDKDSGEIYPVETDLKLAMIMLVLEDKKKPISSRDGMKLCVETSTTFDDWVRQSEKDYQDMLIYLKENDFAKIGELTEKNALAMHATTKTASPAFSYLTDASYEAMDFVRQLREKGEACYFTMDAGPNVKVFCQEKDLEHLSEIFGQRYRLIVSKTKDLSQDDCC

| Compound | IC50 [µM] |
| --- | --- |
| Cc1ccc2nc(-c3ccc(SCC(=O)O)nc3)[nH]c2c1 [2-[[5-(6-methyl-1H-benzimidazol-2-yl)-2-pyridinyl]thio]acetic acid] | 9.87 |
| Cc1c2ccncc2c(C)c2c1[nH]c1ccccc12 [5,11-dimethyl-2H-pyrido[4,3-b]carbazole] | 119 |
| COc1ccc2[nH]c(=O)c(CN(CC3CCCO3)C(=O)Nc3ccccc3)cc2c1 (stereo not given) | 80.7 |
| C=C(C)Cn1c(COc2ccccc2)nnc1SCC(=O)O [2-[[4-(2-methylallyl)-5-(phenoxymethyl)-1,2,4-triazol-3-yl]thio]acetic acid] | > 10000 |
| O=C(NCC1CCCO1)c1coc2nc3ccccc3nc12 (stereo not given) [MLS000046703] | 30.6 |
| O=C(O)CCn1nnc(-c2cccs2)n1 [3-(5-Thiophen-2-yl-tetrazol-2-yl)-propionic acid] | > 10000 |
| COC(=O)c1ccc(COc2ccc3c4c(c(=O)oc3c2)CCC4)o1 [5-[(4-keto-2,3-dihydro-1H-cyclopenta[c]chromen-7-yl)oxymethyl]furan-2-carboxylic acid methyl ester] | 97.1 |
| Cc1nc2oc3c(NCc4ccccn4)ncnc3c2c2c1COC(C)(C)C2 [MLS000084529] | > 10000 |
| O=S(=O)(Nc1cccc2ncccc12)c1cccs1 [MLS000057468] | > 10000 |
| Oc1nc(-c2ccncc2)nc2ccccc12 [MLS000056988] | > 10000 |
| COc1ccc(-c2c3c(nc4sc(C(=O)Nc5cc(C)on5)c(N)c24)CCC3)cc1 [3-amino-4-(4-methoxyphenyl)-N-(5-methyl-3-isoxazolyl)-6,7-dihydro-5H-cyclopenta[b]thieno[3,2-e]pyridine-2-carboxamide] | 8.33 |
| CCOc1ncccc1C(=O)Nc1ccc2c(C)cc(=O)oc2c1 [2-ethoxy-N-(2-keto-4-methyl-chromen-7-yl)nicotinamide] | > 10000 |
| CCc1ccc(NC(=O)c2cnc3scc(C)n3c2=O)cc1 [MLS000102000] | > 10000 |
| Cc1cc(=O)[nH]c(NC(N)=Nc2cccc3ccccc23)n1 | > 10000 |
| COC(=O)c1ccc(Nc2cc(C)nc(-c3ccccc3O)n2)cc1 [4-[[(2E)-2-(6-ketocyclohexa-2,4-dien-1-ylidene)-6-methyl-1H-pyrimidin-4-yl]amino]benzoic acid methyl ester] | 18.6 |
| O=c1c2ccccc2sn1-c1cc(S(=O)(=O)N2CCOCC2)ccc1N1CCOCC1 [2-(2-morpholin-4-yl-5-morpholin-4-ylsulfonyl-phenyl)-1,2-benzothiazol-3-one] | 15.4 |
| CC(=NCc1ccco1)c1c(C)[nH]n(-c2nc3ccccc3s2)c1=O [(4Z)-2-(1,3-benzothiazol-2-yl)-4-[1-(furan-2-ylmethylamino)ethylidene]-5-methyl-pyrazol-3-one] | > 10000 |
| CCOC(=O)c1sc(Nc2nc3c(OC)cccc3s2)nc1C [SMR000027213] | 2.35 |
| CCC(=O)Nc1cccc(NC(=O)CSc2nnnn2Cc2ccccc2)c1 [MLS000068150] | > 10000 |
| N#CC(C(=O)NC1CCCCC1)c1nc2ccccc2nc1N1CCCCC1 (stereo not given) [2-cyano-N-cyclohexyl-2-(3-piperidin-1-ylquinoxalin-2-yl)acetamide] | > 10000 |
| CC(O)COc1ccc(C(N=O)c2ccccc2)cc1 (stereo not given) [(E)-[4-(2-hydroxypropoxy)phenyl](phenyl)methanone oxime] | > 10000 |
| N#Cc1c(NCCO)nc(NCc2ccccc2)c2c1CCN(Cc1ccccc1)C2 [3-(2-hydroxyethylamino)-7-(phenylmethyl)-1-[(phenylmethyl)amino]-6,8-dihydro-5H-2,7-naphthyridine-4-carbonitrile] | 38.6 |
| CCc1cc2c(=O)c(-c3nc4ccccc4n3C)c(C)oc2c(CN2CCN(C)CC2)c1O | 49.5 |
| COc1ccc(CCn2c(N)c(S(=O)(=O)c3cccs3)c3nc4ccccc4nc32)cc1OC [1-[2-(3,4-dimethoxyphenyl)ethyl]-3-thiophen-2-ylsulfonyl-2-pyrrolo[3,2-b]quinoxalinamine] | 105 |
| COc1ccc2c(c1)-c1ccccc1S(=O)(=O)N2C(C)=O [1-(5,5-diketo-9-methoxy-benzo[c][1,2]benzothiazin-6-yl)ethanone] | 80.2 |

| Compound | IC50 [µM] |
| --- | --- |
| CCn1c2ccccc2c2nc3cc(OC)c(OC)cc3nc21 [6-Ethyl-2,3-dimethoxy-6H-indolo[2,3-b]quinoxaline] | 30.6 |
| CCCOC(=O)Cc1n[nH]c(=O)[nH]c1=O [2-(3,5-dioxo-2H-1,2,4-triazin-6-yl)acetic acid propyl ester] | > 10000 |
| Cc1cc(N2CCOCC2)c2c(N)c(Br)cc(C)c2n1 [(6-bromo-2,8-dimethyl-4-morpholino-5-quinolyl)amine] | > 10000 |
| Nc1c(C(=O)NCCN2CCOCC2)c2nc3ccccc3nc2n1-c1ccc2c(c1)OCO2 [2-amino-1-(1,3-benzodioxol-5-yl)-N-(2-morpholin-4-ylethyl)pyrrolo[3,2-b]quinoxaline-3-carboxamide] | 87.4 |
| CCc1c(C)c(C#N)c2nc3ccccc3n2c1Nc1c(C)n(C)n(-c2ccccc2)c1=O [1-[(1,5-dimethyl-3-oxidanylidene-2-phenyl-pyrazol-4-yl)amino]-2-ethyl-3-methyl-pyrido[1,2-a]benzimidazole-4-carbonitrile] | > 10000 |
| c1ccc(-c2nc3nonc3c3nc4ccccc4n23)cc1 [5-Phenyl-2-oxa-1,3,4,5a,10-pentaaza-cyclopenta[a]fluorene] | > 10000 |
| CC(=O)c1cccc(NC(=O)Nc2cccnc2)c1 [1-(3-acetylphenyl)-3-(3-pyridinyl)urea] | > 10000 |
| CC(C)c1nc(NCC2CCCO2)c(C#N)c2c1COC(C)(C)C2 (stereo not given) [3,3-dimethyl-6-(2-oxolanylmethylamino)-8-propan-2-yl-1,4-dihydropyrano[3,4-c]pyridine-5-carbonitrile] | 9.97 |
| CC(=O)Nc1cccc(NC(=O)CSc2nnnn2Cc2ccccc2)c1 [MLS000068005] | > 10000 |
| Cc1cc(N2CCN(C(=O)c3ccco3)CC2)n2nc(-c3cccc(Cl)c3)cc2n1 [MLS000076302] | > 10000 |
| CCOC(=O)COc1ccc2nsnc2c1Cl [2-(4-chloropiazthiol-5-yl)oxyacetic acid ethyl ester] | > 10000 |
| Cc1c(C(=O)OCC(C)(C)CN(C)C)oc2ccccc12 [3-Methyl-benzofuran-2-carboxylic acid 3-dimethylamino-2,2-dimethyl-propyl ester] | > 10000 |
| O=NC1=C(Cc2ccco2)CCC1 [(2E)-2-(2-furanylmethylidene)-1-cyclopentanone oxime] | > 10000 |
| Cc1cc(C)c(S(=O)(=O)NCc2cn3c(C)csc3n2)cc1C [2,4,5-trimethyl-N-[(3-methyl-6-imidazo[2,1-b]thiazolyl)methyl]benzenesulfonamide] | > 10000 |
| Cc1cc(=O)oc2cc(OC(C)C(=O)O)c(Cl)cc12 (stereo not given) [2-(6-chloranyl-4-methyl-2-oxidanylidene-chromen-7-yl)oxypropanoic acid] | > 10000 |
| Cc1ccc(S(=O)(=O)N2CCOCC(=O)NCCOCCNC(=O)COCC2)cc1 [16-(4-methylphenyl)sulfonyl-1,7,13-trioxa-4,10,16-triazacyclooctadecane-3,11-dione] | > 10000 |
| CCOC(=O)c1cncc(NC(=O)c2ccccc2)c1 [5-benzamido-3-pyridinecarboxylic acid ethyl ester] | > 10000 |
| COc1ccc(N2C(C)=CS/C2=C(/C#N)c2nnc(N3CCOCC3)n2-c2ccccc2)cc1 [(2Z)-2-[3-(4-methoxyphenyl)-4-methyl-1,3-thiazol-2-ylidene]-2-(5-morpholin-4-yl-4-phenyl-1,2,4-triazol-3-yl)acetonitrile] | > 10000 |
| CCOC(=O)N1CCN(C(=O)CCc2c(C)nc3c(c(C)nn3-c3ccc(C)c(C)c3)c2C)CC1 [4-[3-[1-(3,4-dimethylphenyl)-3,4,6-trimethyl-5-pyrazolo[3,4-b]pyridinyl]-1-oxopropyl]-1-piperazinecarboxylic acid ethyl ester] | 27.8 |
| Nc1c(C(=O)NC2CCCC2)c2nc3ccccc3nc2n1N=Cc1cccnc1 [2-amino-N-cyclopentyl-1-(3-pyridinylmethylideneamino)-3-pyrrolo[3,2-b]quinoxalinecarboxamide] | 17.1 |
| Cc1cc(C)c2c(=O)n(CC(=O)N3CCC(Cc4ccccc4)CC3)sc2n1 [2-[2-(4-benzylpiperidin-1-yl)-2-oxoethyl]-4,6-dimethyl-[1,2]thiazolo[5,4-b]pyridin-3-one] | 221 |
| c1ccc2c(c1)nnn2Cc1nnc2sc(-c3ccc4c(c3)OCCO4)nn12 [1-{[6-(2,3-dihydro-1,4-benzodioxin-6-yl)[1,2,4]triazolo[3,4-b][1,3,4]thiadiazol-3-yl]methyl}-1H-1,2,3-benzotriazole] | 83.8 |
| COCCNC(=O)c1cnn2c(C(F)(F)F)cc(-c3ccc4c(c3)OCO4)nc12 [5-(1,3-benzodioxol-5-yl)-N-(2-methoxyethyl)-7-(trifluoromethyl)-3-pyrazolo[1,5-a]pyrimidinecarboxamide] | > 10000 |
| Cc1coc2cc3oc(=O)c4c(c3cc12)CCC4 [MLS000054228] | 52.9 |
| O=C(C1CCCCC1)N1CCC(c2nc3c(nnn3Cc3ccccc3Cl)c(=O)[nH]2)CC1 | > 10000 |

same assay, conditions: inactive by the depositor's call

| Compound | IC50 [µM] |
| --- | --- |
| Clc1ccc2c(c1)[C@H]1OCC[C@H]1[C@@H](c1ccco1)N2 [(3aS,4S,9bS)-8-chloranyl-4-(furan-2-yl)-2,3,3a,4,5,9b-hexahydrofuro[3,2-c]quinoline] | 24.4 |
| O=C(O)c1cccn2c(=O)c3ccccc3nc12 [11-Oxo-11H-pyrido[2,1-b]quinazoline-6-carboxylic acid] | 66.7 |
| O=c1c2ccccc2[se]n1-c1ccccc1 [2-Phenyl-benzo[d]isoselenazol-3-one] | 0.513 |
| Cc1csc2ncc(C(=O)Nc3ccccc3Cl)c(=O)n12 [MLS000102002] | 47.4 |
| CCCCNC(=O)c1ccc2nc(-c3ccco3)c(-c3ccco3)nc2c1 [MLS000119995] | 75.6 |
